Test system: HCI-019 (organoid from a triple-negative breast cancer xenograft)
Assay: CTG-3D luminescence at 96 h relative to day-0 seeding control (ratio to day 0); higher = more growth / less cytotoxicity; PDxO 3D drug screen, 96 h, CTG-3D normalised to day-0 seeding control.
[1] = 0.00025 µM, days in culture: 110
[2] = 0.00025 µM, days in culture: 131
[3] = 0.00025 µM, days in culture: 152

Row | SMILES | CTG-3D luminescence at 96 h (12.5 pM, days in culture: 110) | CTG-3D luminescence at 96 h (12.5 pM, days in culture: 131) | CTG-3D luminescence at 96 h (12.5 pM, days in culture: 152) | CTG-3D luminescence at 96 h [1] | CTG-3D luminescence at 96 h [2] | CTG-3D luminescence at 96 h [3] | CTG-3D luminescence at 96 h (0.005 µM, days in culture: 110) | CTG-3D luminescence at 96 h (0.005 µM, days in culture: 131) | CTG-3D luminescence at 96 h (0.005 µM, days in culture: 152) | CTG-3D luminescence at 96 h (0.1 µM, days in culture: 110) | CTG-3D luminescence at 96 h (0.1 µM, days in culture: 131) | CTG-3D luminescence at 96 h (0.1 µM, days in culture: 152) | CTG-3D luminescence at 96 h (1 µM, days in culture: 110) | CTG-3D luminescence at 96 h (1 µM, days in culture: 131) | CTG-3D luminescence at 96 h (1 µM, days in culture: 152) | CTG-3D luminescence at 96 h (10 µM, days in culture: 110) | CTG-3D luminescence at 96 h (10 µM, days in culture: 131) | CTG-3D luminescence at 96 h (10 µM, days in culture: 152) | CTG-3D luminescence at 96 h (100 µM, days in culture: 110) | CTG-3D luminescence at 96 h (100 µM, days in culture: 131) | CTG-3D luminescence at 96 h (100 µM, days in culture: 152) | CTG-3D luminescence at 96 h (625 fM, days in culture: 110) | CTG-3D luminescence at 96 h (625 fM, days in culture: 131) | CTG-3D luminescence at 96 h (625 fM, days in culture: 152)
1 | CCc1c2c(nc3ccc(O)cc13)-c1cc3c(c(=O)n1C2)COC(=O)[C@]3(O)CC [SN-38] | 1.82 | 3.04 | 3.21 | 1.78 | 2.79 | 3.38 | 0.471 | 0.948 | 1.51 | 0.295 | 0.312 | 0.48 | 0.238 | 0.308 | 0.521 | 0.127 | 0.107 | 0.106 | 0.0625 | 0.169 | 0.0856 | 2.53 | 3.56 | 2.26
2 | C=CC(=O)N1CCC[C@@H](n2nc(-c3ccc(Oc4ccccc4)cc3)c3c(N)ncnc32)C1 [ibrutinib] | 1.83 | 2.58 | 3.76 | 0.982 | 3.79 | 3.16 | 1.32 | 2.31 | 2.83 | 2.18 | 2.19 | 2.13 | 1.21 | 1.24 | 1.54 | 1.26 | 2.27 | 1.75 | -0.00836 | -0.0163 | -0.00421 | 2.04 | 2.86 | 2.48
3 | NC1(C(=O)N[C@@H](CCO)c2ccc(Cl)cc2)CCN(c2nc[nH]c3nccc2-3)CC1 [capivasertib] | 1.22 | 2.99 | 2.96 | 1.74 | 3.67 | 2.9 | 1.4 | 2.98 | 2.96 | 1.97 | 3.31 | 1.68 | 0.842 | 1.45 | 0.946 | 1.18 | 1.63 | 0.895 | 0.332 | 0.521 | 0.274 | 1.92 | 4.08 | 2.6
4 | COc1cc2c(Oc3ccc4[nH]c(C)cc4c3F)ncnc2cc1OCCCN1CCCC1 [cediranib] | 1.88 | 2.89 | 2.41 | 1.82 | 3.08 | 3.23 | 1.98 | 3.29 | 2.62 | 2.39 | 3.43 | 1.68 | 1.07 | 1.59 | 0.851 | 0.1 | 0.0352 | 0.22 | -0.00352 | -0.00454 | 0.000827 | 2.01 | 3.39 | 2.04
5 | C=CCn1c(=O)c2cnc(Nc3ccc(N4CCN(C)CC4)cc3)nc2n1-c1cccc(C(C)(C)O)n1 [adavosertib] | 2.05 | 2.63 | 2.43 | 1.58 | 3.93 | 2.43 | 1.23 | 2.52 | 3.28 | 1.52 | 2.25 | 1.42 | 0.377 | 0.386 | 0.511 | 0.536 | 0.381 | 0.452 | 0.502 | 0.4 | 0.519 | 2.37 | 3.56 | 2.53
6 | CC(C)(C(=O)NCC(F)(F)C(F)(F)F)C(=O)N[C@@H]1C(=O)Nc2ccccc2-c2ccccc21 | 1.83 | 2.53 | 3.04 | 1.52 | 3.17 | 2.87 | 1.54 | 3.05 | 3.36 | 2.23 | 3.09 | 1.92 | 1.47 | 2.31 | 2.19 | 2.09 | 3.61 | 2.41 | 1.37 | 2.28 | 1.12 | 1.84 | 4.34 | 1.98
7 | C[C@@H]1COCCN1c1cc(C2([S@](C)(=N)=O)CC2)nc(-c2cc[nH]c3nccc2-3)n1 [ceralasertib] | 1.9 | 2.22 | 2.6 | 1.2 | 3.35 | 2.77 | 1.15 | 3.06 | 2.34 | 2 | 3.3 | 2.22 | 0.748 | 1.98 | 1.1 | 0.526 | 0.424 | 0.604 | 0.468 | 0.71 | 0.499 | 1.62 | 3.75 | 2.45
8 | CC(=O)O[C@H]1C(=O)[C@@]2(C)[C@H]([C@H](OC(=O)c3ccccc3)[C@]3(O)C[C@H](OC(=O)[C@H](O)[C@@H](NC(=O)c4ccccc4)c4ccccc4)C(C)=C1C3(C)C)[C@]1(OC(C)=O)CO[C@@H]1C[C@@H]2O [paclitaxel] | 1.88 | 2.01 | 1.25 | 1.91 | 2.78 | 1.28 | 0.816 | 0.75 | 0.778 | 0.627 | 0.609 | 0.964 | 0.47 | 0.644 | 0.598 | 0.827 | 1.48 | 1.01 | 0.987 | 1.29 | 1.18 | 2.39 | 3.26 | 1.52
9 | NC(=O)Nc1cc(-c2cccc(F)c2)sc1C(=O)N[C@H]1CCCNC1 [AZD7762] | 2.48 | 2.56 | 1.82 | 1.62 | 4.24 | 2.74 | 1.33 | 2.81 | 2.11 | 1.06 | 2.99 | 1.11 | 0.333 | 0.541 | 0.437 | 0.13 | 0.193 | 0.149 | -0.000246 | 0.00562 | 0.00479 | 2.15 | 4.04 | 3.06
10 | Cc1cc(Nc2ncc(Cl)c(Nc3ccccc3S(=O)(=O)C(C)C)n2)c(OC(C)C)cc1C1CCNCC1 [ceritinib] | 1.94 | 2.4 | 2.83 | 1.72 | 3 | 2.4 | 1.21 | 2.64 | 1.79 | 2.24 | 3.8 | 1.51 | 1.78 | 2.36 | 1.37 | 0.533 | 0.0735 | 0.01 | -0.00638 | -0.00829 | -0.00373 | 2.49 | 3.86 | 2.52
11 | CC[C@H](NC(=O)[C@H](C)NC)C(=O)N1C[C@@H](O)C[C@H]1Cc1c(-c2[nH]c3cc(F)ccc3c2C[C@@H]2C[C@H](O)CN2C(=O)[C@H](CC)NC(=O)[C@H](C)NC)[nH]c2cc(F)ccc12 [birinapant] | 1.9 | 2.64 | 2.72 | 2.21 | 3.89 | 2 | 1.18 | 2.09 | 2.1 | 0.993 | 3.03 | 1.49 | 0.634 | 1.34 | 0.853 | 1.01 | 2.65 | 1.05 | 0.351 | 0.638 | 0.336 | 1.87 | 3.16 | 1.84
12 | CCN1CCN(Cc2ccc(Nc3ncc(F)c(-c4cc(F)c5nc(C)n(C(C)C)c5c4)n3)nc2)CC1 [abemaciclib] | 2.26 | 2.45 | 3.44 | 1.44 | 3.28 | 2.78 | 1.96 | 2.99 | 2.45 | 2.43 | 4.2 | 2.58 | 1.42 | 2.75 | 2.13 | 0.433 | 1.9 | 0.0403 | 0.016 | 0.0216 | 0.012 | 2.64 | 2.87 | 2.48
13 | Cc1nc(-c2cn3c(n2)-c2ccc(-c4cnn(C(C)(C)C(N)=O)c4)cc2OCC3)n(C(C)C)n1 [taselisib] | 1.23 | 2.82 | 3.26 | 1.32 | 3.38 | 2.42 | 1.4 | 3.03 | 2.02 | 1.45 | 1.62 | 1.86 | 0.521 | 1.23 | 1.08 | 0.496 | 0.571 | 0.381 | 0.105 | 0.133 | 0.116 | 2.64 | 4.04 | 2.51
